The values below are quoted from earlier work in US20140141090A1, “Pharmaceutical Composition Comprising Opioid Agonist And Sequestered Antagonist” (priority 2011, published 2014).

Where a name gives a salt, the structure may show the parent alone. Read-outs that look alike come from different tables or passages of the source.

Assay in data set [1]: not given
The source holds these as a separate data set.

For data set [2] the following is noted: after oral administration.
Assay in data set [3]: not given
This is another data set of the same source.

Where [4] appears, read: in comparison to a 15 mg dose of hydrocodone.

Turning to `O=C1CC[C@@]2(O)[C@H]3Cc4ccc(O)c5c4[C@@]2(CCN3CC2CC2)[C@H]1O5` [hydrochloride salt of naltrexone, naltrexone hydrochloride], the Solubility in water entry is on record as “up to 100 mg/cc”.
As for `COc1ccc2c3c1O[C@H]1C(=O)CC[C@H]4[C@@H](C2)N(C)CC[C@]314` [hydrocodone], the Equianalgesic dose in data set [1] (setting [4]) was 15.0 mg.
For `CCC(=O)C(CC(C)N(C)C)(c1ccccc1)c1ccccc1` (stereo not drawn) [methadone], in data set [1] (setting [4]), the Equianalgesic dose is given as 9.0 mg.
For `COc1ccc2c3c1O[C@H]1[C@@H](O)C=C[C@H]4[C@@H](C2)N(C)CC[C@@]341` [codeine], the Equianalgesic dose in data set [1] (setting [4]) is recorded as 90.0 mg.
As to `O=C1CC[C@@]2(O)[C@H]3Cc4ccc(O)c5c4[C@@]2(CCN3CC2CC2)[C@H]1O5` [naltrexone], the Duration of action in data set [2] was around 24 h. Further, in data set [3], the Oral bioavailability is listed as 5-40% and the “Time of absorption following oral administration” value was at most 1 h.
As to `CCOC(=O)C1(c2ccccc2)CCN(C)CC1` [meperidine], in data set [1] (in vivo), the Equianalgesic dose is 135.0 mg.
With `COc1ccc2c3c1OC1C(=O)CC[C@@]4(O)[C@@H](C2)N(C)CC[C@]314` (stereo partly drawn) [oxycodone, 4,5-epoxy-14-hydroxy-3-methoxy-17-methylmorphinan-6-one], the Equianalgesic dose in data set [1] (setting [4]) is 13.5 mg.
For `C[C@H]1[C@H]2Cc3ccc(O)cc3[C@]1(C)CCN2CC1CC1` [cyclazocine], the Duration of action in data set [2] is around 24 h.
As for `CN1CC[C@]23c4c5ccc(O)c4O[C@H]2[C@@H](O)C=C[C@H]3[C@H]1C5` [morphine], in data set [1] (in vivo), the Equianalgesic dose is listed as 27.0 mg.
On to `CN1CC[C@]23CCCC[C@H]2[C@H]1Cc1ccc(O)cc13` [levorphanol], for which the Equianalgesic dose in data set [1] (setting [4]) is 1.8 mg.
